# Reference: paper PMC7762659, “Phenolic Compounds from Polygonum chinense Induce Growth Inhibition and Apoptosis of Cervical Cancer SiHa Cells” (BioMed Research International, 2020)
# Like-named read-outs stand apart in the source and are kept apart here.
# Experiments:
# Type in all cases: cell-based, human
# [1] = tested on: SiHa cells; test: CCK8 antiproliferative activity assay on SiHa cells; conditions: 48 h, read-out: IC50, antiproliferation activity on SiHa cells (PC phenolics)
# Description: (§1) The SiHa cell line was obtained from American Type Culture Collection (ATCC, Manassas, Virginia, VA, USA); HcerEpic cell was obtained from ScienCell (San Diego, Los Angeles, LA, USA). The cells were maintained in medium RP1640 containing 10% FBS, high glucose DMEM cultured with 100 U/ml of penicillin, and 100 U/ml of streptomycin, in a humidified CO2 (5%) incubator at 37°C. All reagents for cell cultures were purchased from Invitrogen (Carlsbad, California, CA, USA).
# (§2) SiHa and HcerEpic cells were cultured in 96-well plates at approximately 7.5 × 10^3 cells per well and incubated for 12 h. Then, cells were treated with different concentrations of PC extracts (5, 10, 25, 50, and 100 μg/mL) or seven PC PHE (10, 20, 40, 60, and 80 μM). After incubation of 48 h, then 10 μL CCK8 reagent added per hole, placed in the incubator 2 h, incubation, enzyme standard instrument determination at 450 nm absorbance (OD value).
# (§3) Cell vitality∗(%) = [A (dosing) − A (blank)]/[A dosing (O) − A (blank)] × 100%A (dosing): OD values of Wells with cell, CCK8 solution, and drug solution.
# (§4) A (blank): OD values of Wells with medium, CCK8 solution, and no cells.
# (§5) A (0 dosing): OD values of Wells with cell and CCK8 solution but no drug solution.
# [2] = tested on: HcerEpic cells; test: CCK8 antiproliferative activity assay on HcerEpic cells; conditions: 48 h, read-out: IC50, antiproliferation activity on HcerEpic cells (PC phenolics)
# Description: as §1, §2, §3, §4, §5
# [3] = tested on: P53, Bax, Bcl-2, caspase 3, caspase 9 in SiHa cells; test: Western blot of apoptosis-related proteins in SiHa cells; conditions: SiHa cells, 25, 50, 75 μM, 48 h, compared with control
# Description: We followed the Western blot methods of Tu et al. 2020 [24]. […] The culture was terminated after 48 h. Then, cells were collected and proteins were extracted with RIPA lysis buffer containing a protease inhibitor cocktail. The total protein concentrations were measured using the Bradford method, and the normalized protein samples were added to 4 sample buffer, then boiled and denatured. Equal amounts of proteins were separated by SDS-PAGE and then transferred to nitrocellulose membranes. The membranes were blocked and then probed with indicated primary antibodies, respectively, with anti-P53 (1 : 1000), anti-Bax (1 : 1000), anti-Bcl-2 (1 : 1000), anti-caspase 3 (1 : 2500), anti-caspase 9 (1 : 2500), anti-cleaved-caspase 3 (1 : 1000), and anti-cleaved-caspase 9 (1 : 1000), at 4°C overnight. Antibodies were purchased from Abcam (Santa Cruz, California, CA, USA); others were from Cell Signaling Technology (Cell Signaling, Danvers, Massachusetts, MA, USA). All antibodies were diluted with 5% BSA in TBST buffer. The blots were rinsed and then incubated with secondary antibodies (anti-mouse antibody or anti-rabbit antibody, 1 : 5000, Cell Signaling Technology). Reactive bands were visualized using ECL (Thermo Fisher Scientific; Waltham, MA, USA) and then calibrated by ChemiDoc Imaging System (Bio-Rad; Hercules, California, CA, USA).
Molecule,IC50 [1] [µM],IC50 [2] [µM],"IC50 ([1]; Homo sapiens, SiHa) [µM]",IC50 ([2]; Homo sapiens) [µM],expression level of Bcl-2 protein [3],expression level of Caspase3 protein [3],expression level of Csapase9 protein [3],expression level of P53 protein [3]
O=C1CC(C(=O)O)c2c1oc(=O)c1cc(O)c(O)c(O)c21 (stereo not shown) [Brevifolin carboxylic acid],> 100,> 100,–,–,–,–,–,–
O=C(O)C[C@@H]1C(=O)O[C@H]2[C@@H]3OC(=O)c4cc(O)c(O)c(O)c4-c4c(cc(O)c(O)c4O)C(=O)OC[C@H]2O[C@@H](OC(=O)c2cc(O)c(O)c(O)c2)[C@@H]3OC(=O)c2cc(O)c(O)c3c2[C@H]1[C@H](O)C(=O)O3 [Chebulagic acid],–,–,> 100,> 100,–,–,–,–
O=C(/C=C/c1ccc(O)c(O)c1)O[C@@H]1C[C@](O)(C(=O)O)C[C@@H](O)[C@H]1O [Chlorogenic acid],–,–,> 100,> 100,–,–,–,–
O=C(O[C@@H]1O[C@@H]2COC(=O)c3cc(O)c(O)c(O)c3-c3c(cc(O)c(O)c3O)C(=O)O[C@H]([C@H]1O)[C@@H]2O)c1cc(O)c(O)c(O)c1 [Corilagin],–,–,28.7,> 100,downregulated,significantly upregulated,significantly upregulated,significantly upregulated
O=c1oc2c(O)c(O)cc3c(=O)oc4c(O)c(O)cc1c4c23 [Ellagic acid],–,–,21.5,> 100,downregulated,significantly upregulated,significantly upregulated,significantly upregulated
O=C(O)c1cc(O)c(O)c(O)c1 [Gallic acid],–,–,> 100,> 100,–,–,–,–
Citrate acid,> 100,> 100,–,–,–,–,–,–
